According to patent US4804684A, “Symmetrical O-substituted dioximes of benzo-fused β-diketocyclo-alkylenes, the processes for their preparation and their application as drugs” (Panmedica S.A., priority 1986, dated 1989):
≈ marks a conversion by molar mass, not a printed value. Where a name gives a salt, the structure may show the parent alone.

Legend:
[1] = system: isolated guinea-pig intestine; assay: Antagonistic effects on isolated guinea-pig intestine (MAGNUS); conditions: 0.1 μg/ml
[2] = system: platelet-rich human plasma; platelet aggregation induced by collagen; assay: Platelet aggregation (platelet-rich human plasma) induced in vitro by collagen; format: cell-based; conditions: platelet-rich human plasma, 300,000 platelets/cm^2, 10.0 μg/ml of collagen; read-out: IC50, inductor: collagen
Description: (§1) Study of the Effects on the Platelet Aggregation (Platelet-Rich Human Plasma) Induced in Vitro By: ADP, Collagen or Arachidonic Acid Blood samples from volunteer donors are treated and adjusted to a platelet concentration of 300,000/cm^2 and then incubated with different concentrations of the test products. Aggregation is induced by 2.0 μg/ml of ADP or by 10.0 μg/ml of collagen. The measurements are made using a Bryston-type aggregometer--or CHRONOLOG. The changes in optical density are noted and the values of the concentrations which cause a 50% inhibition are calculated.

platelet aggregation = assay: In vitro inhibition of platelet aggregation (BORN's method), induced by collagen or ADP; format: cell-based, animal and human; conditions: 100 μg/ml, aspirin as reference
Description: In vitro inhibition of platelet aggregation The inhibition of platelet aggregation is measured in vitro by BORN's method (Nature 4832, 927 (1962)), the aggregation being induced by collagen or ADP. […] The aggregation can also be induced in vitro by serotonin, arachidonic acid and norepinephrine. Furthermore, this inhibitory effect was observed on platelet-rich plasma (PRP) of animal origin and human origin.

[3] = system: platelet-rich human plasma; platelet aggregation induced by ADP; assay: Platelet aggregation (platelet-rich human plasma) induced in vitro by ADP; format: cell-based; conditions: platelet-rich human plasma, 300,000 platelets/cm^2, 2.0 μg/ml of ADP; read-out: IC50, inductor: ADP
Description: as §1

SMILES | IC50 [2] [µg/mL] | IC50 [3] [µg/mL] | inhibitory effect on isolated guinea-pig intestine [1] | inhibition of platelet aggregation compared with aspirin (platelet aggregation)
CCN(CC)CCON=C1CC(=NOCCN(CC)CC)c2ccccc2-c2ccccc21.O=C(O)C(O)C(O)C(=O)O.O=C(O)C(O)C(O)C(=O)O [Example 17, 5,7-Bis(2-Diethylaminoethoxyimino)-6,7-Dihydro-(5H)-Dibenzo[a,c]Cycloheptene Ditartrate] | 16 | 10 | still substantial | comparable or even superior to aspirin
CCN(CC)CCON=C1CC(=NOCCN(CC)CC)c2ccccc2-c2ccccc21.O=C(O)/C=C\C(=O)O.O=C(O)/C=C\C(=O)O [Example 16, 5,7-Bis(2-Diethylaminoethoxyimino)-6,7-Dihydro-(5H)-Dibenzo[a,c]Cycloheptene Dimaleate] | 22 | 16 | still substantial | comparable or even superior to aspirin
Cl.Cl.c1cncc(CON=C2CC(=NOCc3cccnc3)c3ccccc3-c3ccccc32)c1 [Example 14, 5,7-Bis(pyridin-3-ylmethoxyimino)-6,7-dihydro-(5H)-dibenzo[a,c]cycloheptene dihydrochloride] | 600 | 460 | still substantial | –
Cl.Cl.NCCON=C1CC(=NOCCN)c2ccccc2-c2ccccc21 [Example 18, 5,7-Bis(2-Aminoethoxyimino)-6,7-Dihydro-(5H)-Dibenzo[a,c]Cycloheptene Dihydrochloride] | 50 | 40 | still substantial | comparable or even superior to aspirin
Cl.Cl.NCCCON=C1CC(=NOCCCN)c2ccccc2-c2ccccc21 [Example 19, 5,7-Bis(3-Aminopropoxyimino)-6,7-Dihydro-(5H)-Dibenzo[a,c]Cycloheptene Dihydrochloride] | 175 | 100 | still substantial | comparable or even superior to aspirin
CCN(CC)CCON=C1CC(=NOCCN(CC)CC)c2ccccc2-c2ccccc21.Cl.Cl [Example 15, 5,7-Bis(2-Diethylaminoethoxyimino)-6,7-Dihydro-(5H)-Dibenzo[a,c]Cycloheptene Dihydrochloride] | 24 | 10 | still substantial | comparable or even superior to aspirin

Further lines, with some results ahead:

IC50 [2] [µg/mL] | IC50 [3] [µg/mL] | SMILES | inhibitory effect on isolated guinea-pig intestine [1] | inhibition of platelet aggregation compared with aspirin (platelet aggregation)
110 (≈ 222 µM) | 100 (≈ 202 µM) | CCN(CC)CCON=C1c2ccccc2C(=NOCCN(CC)CC)C1c1ccc2c(c1)OCO2 (centres unmarked) [Example 29, 1,3-Bis(2-Diethylaminoethoxyimino)-2-(3,4-Methylenedioxyphenyl)-(1H)-Indene-(2H) Dihydochloride] | – | comparable or even superior to aspirin
145 | 160 | CCN(CC)CCON=C1CC(=NOCCN(CC)CC)c2ccccc21 [Example 22, 1,3-Bis(2-Diethylaminoethoxyimino)-(1H)-Indene-(1H) Dihydrochloride] | still substantial | –
12 | 22 | CCN(CC)CCON=C1c2ccccc2-c2ccccc2C(=NOCCN(CC)CC)C1c1ccc(F)cc1.Cl.Cl (centres unmarked) [Example 33, 5,7-Bis(2-Diethylaminoethoxyimino)-6-(4-Fluorophenyl)-6,7-Dihydro-(5H)-Dibenzo[a,c]Cycloheptene Dihydrochloride] | – | comparable or even superior to aspirin
62 | 40 | CCN(CC)CCON=C1c2ccccc2C(=NOCCN(CC)CC)C1c1ccc(C)cc1 (centres unmarked) [Example 28, 1,3-Bis(2-Diethylaminoethoxyimino)-2-(4-Methylphenyl)-(1H)-Indene-(2H) Dihydrochloride] | – | comparable or even superior to aspirin
